The source of these data is patent US20260125400A1, “TYK2 DEGRADERS AND USES THEREOF” (Kymera Therapeutics, Inc., priority 2023, published 2026).

This experiment concerns the target T1, TYK2 (Homo sapiens, UniProt P29597).
T1 construct: Degradation of TYK2 in cells was quantitatively measured using Meso Scale Discovery (MSD) technology; endogenous in cells; host or cells: OCI-LY10
In words: TYK2 MSD degradation in OCI-LY10 cells. The class given is cell-based. The note with it: TYK2 degradation in OCI-LY10 cells, 4 to 24 hours incubation; for DC50: read-out: TYK2 MSD OCI-LY10 Rel-DC50. The essentials: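 Cellular TYK2 levels were measured by Meso Scale Discovery sandwich detection in RIPA lysates of OCI-LY10 cells exposed 4 to 24 hours at 37° C to nine 1:3 compound doses starting at 1 to 10 μM final; dose-response fitted by four-parameter regression.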

Some results are limits rather than exact numbers.

T1 sequence (P29597 whole entry): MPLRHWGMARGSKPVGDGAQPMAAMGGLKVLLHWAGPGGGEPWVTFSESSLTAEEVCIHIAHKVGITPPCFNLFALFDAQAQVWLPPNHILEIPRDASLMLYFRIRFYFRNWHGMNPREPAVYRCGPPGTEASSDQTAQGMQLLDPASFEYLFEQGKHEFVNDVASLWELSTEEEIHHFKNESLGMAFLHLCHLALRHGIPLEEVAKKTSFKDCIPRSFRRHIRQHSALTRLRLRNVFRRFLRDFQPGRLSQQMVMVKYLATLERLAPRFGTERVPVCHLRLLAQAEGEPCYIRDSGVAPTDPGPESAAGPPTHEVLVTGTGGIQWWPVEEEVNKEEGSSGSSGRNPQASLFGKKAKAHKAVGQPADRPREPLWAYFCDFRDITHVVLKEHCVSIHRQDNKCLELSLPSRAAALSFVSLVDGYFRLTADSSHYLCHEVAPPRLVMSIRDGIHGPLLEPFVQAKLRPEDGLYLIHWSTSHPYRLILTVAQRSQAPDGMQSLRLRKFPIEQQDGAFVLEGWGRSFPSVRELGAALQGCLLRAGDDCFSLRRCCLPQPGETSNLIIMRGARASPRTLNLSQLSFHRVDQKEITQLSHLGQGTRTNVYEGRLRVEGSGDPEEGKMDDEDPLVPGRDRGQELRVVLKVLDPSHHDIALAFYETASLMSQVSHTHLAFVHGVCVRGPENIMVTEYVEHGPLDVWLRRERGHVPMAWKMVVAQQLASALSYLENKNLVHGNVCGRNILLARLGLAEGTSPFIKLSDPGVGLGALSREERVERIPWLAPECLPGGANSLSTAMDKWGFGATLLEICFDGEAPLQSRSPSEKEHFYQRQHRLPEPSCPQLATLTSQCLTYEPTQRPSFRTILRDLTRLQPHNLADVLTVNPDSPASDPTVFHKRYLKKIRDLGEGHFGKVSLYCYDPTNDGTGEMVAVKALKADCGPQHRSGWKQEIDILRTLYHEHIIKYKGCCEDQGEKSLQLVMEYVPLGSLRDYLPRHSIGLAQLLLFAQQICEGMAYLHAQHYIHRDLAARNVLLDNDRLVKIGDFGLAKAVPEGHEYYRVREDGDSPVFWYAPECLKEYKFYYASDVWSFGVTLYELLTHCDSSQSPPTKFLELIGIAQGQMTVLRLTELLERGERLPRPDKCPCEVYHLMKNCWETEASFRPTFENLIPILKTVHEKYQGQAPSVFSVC

For the compound `CNc1cc(N2CCc3c(-c4ncc(CN5CC6(CCN(C(=O)c7cc(F)c(C)c(N8CCC(=O)NC8=O)c7)CC6(F)F)C5)cc4F)cccc32)nn2c(C(=O)N[C@@H]3C[C@@H]3F)cnc12` [I-1016], the “TYK2 MSD OCI-LY10 Dmax %” value is reported as “A (A (>90%))” and the DC50 was under 1 nM.
For `CNc1cc(N2CCc3c(-c4ccc(OC5CC6(CCN(C(=O)c7cc(C)c(Cl)c(N8CCC(=O)NC8=O)c7)CC6)C5)cn4)cccc32)nn2c(C(=O)N[C@@H]3C[C@@H]3F)cnc12` [I-1017], in that order: “B (B (90 to >75%))” and under 10 nM.
Regarding `CNc1cc(N2CCc3c(-c4ncc(CN5CC6(CCN(C(=O)c7ccc(C)c(N8CCC(=O)NC8=O)c7)CC6(F)F)C5)cc4F)cccc32)nn2c(C(=O)N[C@@H]3C[C@@H]3F)cnc12` [I-1018], the “TYK2 MSD OCI-LY10 Dmax %” value is “A (A (>90%))” and the DC50 is under 1 nM.
In the case of `CNc1cc(N2CCc3c(-c4ncc(CN5CC6(CCN(C(=O)c7ccc(OC)c(N8CCC(=O)NC8=O)c7)CC6(F)F)C5)cc4F)cccc32)nn2c(C(=O)N[C@@H]3C[C@@H]3F)cnc12` [I-1019], the “TYK2 MSD OCI-LY10 Dmax %” value is reported as “A (A (>90%))” and the DC50 is under 1 nM.
With `CNc1cc(N2CCc3c(CN4CCC(N5CCC6(CCN(C(=O)c7cc(N8CCC(=O)NC8=O)c(C)cn7)CC6)CC5)C(F)(F)C4)cccc32)nn2c(C(=O)N[C@@H]3C[C@@H]3F)cnc12` (some centres unmarked) [I-1022], the “TYK2 MSD OCI-LY10 Dmax %” value is “B (B (90 to >75%))” and the DC50 was under 1 nM.
For `CNc1cc(N2CCc3c(-c4ncc(CN5CC6(CCN(C(=O)c7ccc(Cl)c(N8CCC(=O)NC8=O)c7)CC6(F)F)C5)cc4F)cccc32)nn2c(C(=O)N[C@@H]3C[C@@H]3F)cnc12` [I-1023], in that order: “A (A (>90%))” and under 1 nM.
In the same order, the values of `CNc1cc(N2CCc3c(-c4ncc(CN5CC6(CCN(C(=O)c7cc(Cl)c(C)c(N8CCC(=O)NC8=O)c7)CC6(F)F)C5)cc4F)cc(F)cc32)nn2c(C(=O)NC3CCC3OC)cnc12` (centres unmarked) [I-1038] are “A (A (>90%))” and under 1 nM.
In the same order, the values of `CNc1cc(N2CCc3c(CN4CCC(N5CCC(C6CCN(C(=O)c7cc(C)c(Cl)c(N8CCC(=O)NC8=O)c7)CC6)CC5)C(F)(F)C4)cccc32)nn2c(C(=O)N[C@@H]3CC[C@H]3OC)cnc12` (some centres unmarked) [I-1066] are “A (A (>90%))” and under 1 nM.
Turning to `CNc1cc(N2CCc3c(CN4CCC(N5CC6(CCN(C(=O)c7cc(Cl)c(C)c(N8CCC(=O)NC8=O)c7)CC6)C5)C(F)(F)C4)cccc32)nn2c(C(=O)N[C@@H]3CC[C@H]3OC)cnc12` (some centres unmarked) [I-1068], the “TYK2 MSD OCI-LY10 Dmax %” value is “A (A (>90%))” and the DC50 is under 1 nM.
Consider `CNc1cc(N2CCc3c(CN4CCC(N5CCC(C6CCN(C(=O)c7ccc(Cl)c(N8CCC(=O)NC8=O)c7)CC6)CC5)C(F)(F)C4)cccc32)nn2c(C(=O)N[C@@H]3CC[C@H]3OC)cnc12` (some centres unmarked) [I-1069], for which the “TYK2 MSD OCI-LY10 Dmax %” value is on record as “A (A (>90%))” and the DC50 is under 1 nM.
In the same order, the values of `CNc1cc(N2CCc3c(-c4ccc(CN5CC6(CCN(C(=O)c7cc(C)c(Cl)c(N8CCC(=O)NC8=O)c7)CC6(F)F)C5)cn4)cccc32)nn2c(C(=O)NC(C)c3ncco3)cnc12` (centres unmarked) [I-1072] are “B (B (90 to >75%))” and under 10 nM.
In the same order, the values of `CNc1cc(N2CCc3c(CN4CCC(N5CC6(CCN(C(=O)c7cc(C)c(Cl)c(N8CCC(=O)NC8=O)c7)CC6)C5)C(F)(F)C4)cccc32)nn2c(C(=O)N[C@@H]3CC[C@H]3OC)cnc12` (some centres unmarked) [I-1073] are “A (A (>90%))” and under 1 nM.
Take `CNc1cc(N2CCc3c(CN4CCC(CN5CCC6(CC5)CCN(C(=O)c5ccc(Cl)c(N7CCC(=O)NC7=O)c5)CC6)C(F)(F)C4)cccc32)nn2c(C(=O)N[C@@H]3CC[C@H]3OC)cnc12` (stereo partly drawn) [I-1074, 6-(4-{[4-({9-[14-chloro-3-(2,4-dioxo-1,3-diazinan-1-yl)benzoyl]-3,9-diazaspiro[5.5]undecan-3-yl}methyl)-3,3-difluoropiperidin-1-yl]methyl}-2,3-dihydroindol-1-yl)-N-[(1R,2R)-2-methoxycyclobutyl]-8-(methylamino)imidazo[1,2-b]pyridazine-3-carboxamide]: the Dmax was over 90% and the half-maximal degradation concentration (DC50) is under 1 nM.
In the case of `CNc1cc(N2CCc3c(-c4ccc(CN5CC6(CCN(C(=O)c7cc(C)c(Cl)c(N8CCC(=O)NC8=O)c7)CC6(F)F)C5)cn4)cccc32)nn2c(C(=O)NCc3ncco3)cnc12` [I-1077], the “TYK2 MSD OCI-LY10 Dmax %” value is reported as “B (B (90 to >75%))” and the DC50 is under 1 nM.
In the same order, the values of `CNc1cc(N2CCc3c(CN4CCC(N5CCC6(CCN(C(=O)c7cc(F)c(Cl)c(N8CCC(=O)NC8=O)c7)CC6)CC5)C(F)(F)C4)cccc32)nn2c(C(=O)NC3CCC3OC)cnc12` (centres unmarked) [I-1078] are “A (A (>90%))” and under 1 nM.
In the same order, the values of `CNc1cc(N2CCc3c(CN4CCC(N5CCC6(CCN(C(=O)c7cc(F)c(C)c(N8CCC(=O)NC8=O)c7)CC6)CC5)C(F)(F)C4)cccc32)nn2c(C(=O)N[C@@H]3CC[C@H]3OC)cnc12` (some centres unmarked) [I-1081] are “A (A (>90%))” and under 1 nM.
In the same order, the values of `CNc1cc(N2CCc3c(-c4ccc(CN5CCC6(CCN(C(=O)c7ccc(Cl)c(N8CCC(=O)NC8=O)c7)C6)C(F)(F)C5)cn4)cccc32)nn2c(C(=O)N[C@@H]3C[C@@H]3F)cnc12` (some centres unmarked) [I-1082] are “B (B (90 to >75%))” and under 1 nM.
Consider `CNc1cc(N2CCc3c(CN4CCC(N5CCC6(CCN(C(=O)c7cc(N8CCC(=O)NC8=O)c(Cl)cc7F)CC6)CC5)C(F)(F)C4)cccc32)nn2c(C(=O)N[C@@H]3CC[C@H]3OC)cnc12` (some centres unmarked) [I-1084], for which the “TYK2 MSD OCI-LY10 Dmax %” value is given as “A (A (>90%))” and the half-maximal degradation concentration (DC50) is under 1 nM.
With `CNc1cc(N2CCc3c(-c4ccc(CN5CCC6(CCN(C(=O)c7ccc(Cl)c(N8CCC(=O)NC8=O)c7)CC6)C(F)(F)C5)cn4)cccc32)nn2c(C(=O)N[C@H]3CC[C@@H]3C(F)(F)F)cnc12` [I-1103], the “TYK2 MSD OCI-LY10 Dmax %” value was “D (D (<50%))” and the DC50 was 10 to 100 nM.
For `CNc1cc(N2CCc3c(-c4ccc(CC5CC6(CCN(C(=O)c7cc(F)c(Cl)c(N8CCC(=O)NC8=O)c7)CC6)C5)cn4)cccc32)nn2c(C(=O)N[C@@H]3CC[C@H]3OC)cnc12` [I-1104], in that order: “A (A (>90%))” and under 10 nM.
In the same order, the values of `CNc1cc(N2CCc3c(-c4ncc(CN5CCC6(CCN(C(=O)c7cc(C)c(Cl)c(N8CCC(=O)NC8=O)c7)CC6)C(F)(F)C5)cc4F)cccc32)nn2c(C(=O)N[C@@H]3CC[C@H]3OC)cnc12` [I-1106] are “A (A (>90%))” and under 10 nM.
For the compound `CNc1cc(N2CCc3c(-c4ccc(CC5CCC6(CC5)CCN(C(=O)c5cc(C)c(Cl)c(N7CCC(=O)NC7=O)c5)CC6)cn4)cccc32)nn2c(C(=O)N[C@@H]3CC[C@H]3OC)cnc12` [I-1107], the “TYK2 MSD OCI-LY10 Dmax %” value is recorded as “A (A (>90%))” and the DC50 was under 10 nM.
In the same order, the values of `CNc1cc(N2CCc3c(-c4ccc(CN5CCC6(CCN(C(=O)c7ccc(Cl)c(N8CCC(=O)NC8=O)c7)CC6)C(F)(F)C5)cn4)cccc32)nn2c(C(=O)N[C@@H]3CC[C@H]3C(F)(F)F)cnc12` [I-1108] are “D (D (<50%))” and over 100 nM.
In the same order, the values of `CNc1cc(N2CCc3c(CN4CCC(N5CCC6(CCN(C(=O)c7cc(C)c(Cl)c(N8CCC(=O)NC8=O)c7)CC6)CC5)C(F)(F)C4)cc(F)cc32)nn2c(C(=O)N[C@@H]3CC[C@H]3OC)cnc12` (some centres unmarked) [I-1114] are “A (A (>90%))” and under 1 nM.
In the same order, the values of `CNc1cc(N2CCc3c(CN4CCC(N5CCC6(CCN(C(=O)c7cc(C)c(Cl)c(N8CCC(=O)NC8=O)c7)CC6)CC5)C(F)(F)C4)cc(Cl)cc32)nn2c(C(=O)N[C@@H]3CC[C@H]3OC)cnc12` (some centres unmarked) [I-1116] are “B (B (90 to >75%))” and under 10 nM.
As for `CNc1cc(N2CCc3c(-c4ccc(CN5CC6(CCN(C(=O)c7cc(C)c(Cl)c(N8CCC(=O)NC8=O)c7)CC6(F)F)C5)cn4)cccc32)nn2c(C(=O)N[C@H]3CCC[C@@H]3OC)cnc12` [I-1117], the “TYK2 MSD OCI-LY10 Dmax %” value is recorded as “D (D (<50%))” and the DC50 was over 100 nM.
Take `CNc1cc(N2CCc3c(-c4ccc(CN5CCC6(CCN(C(=O)c7ccc(Cl)c(N8CCC(=O)NC8=O)c7)CC6)C(F)(F)C5)cn4)cccc32)nn2c(C(=O)NC3CC(C(F)(F)F)C3)cnc12` (centres unmarked) [I-1118]: the “TYK2 MSD OCI-LY10 Dmax %” value is given as “C (C (75 to 50%))” and the 50% degradation concentration (DC50) lay within 10 to 100 nM.
Take `CNc1cc(N2CCc3c(-c4ccc(CC5(F)CC6(CCN(C(=O)c7cc(N8CCC(=O)NC8=O)c(C)cc7F)CC6)C5)cn4)cccc32)nn2c(C(=O)N[C@@H]3CC[C@H]3OC)cnc12` [I-1121]: the “TYK2 MSD OCI-LY10 Dmax %” value is “A (A (>90%))” and the DC50 was under 1 nM.
For `CNc1cc(N2CCc3c(CN4CCC(CN5CCC6(CCN(C(=O)c7cc(C)c(Cl)c(N8CCC(=O)NC8=O)c7)CC6)C(F)(F)C5)C(F)(F)C4)cccc32)nn2c(C(=O)N[C@@H]3CC[C@H]3OC)cnc12` (some centres unmarked) [I-1122], the “TYK2 MSD OCI-LY10 Dmax %” value is recorded as “A (A (>90%))” and the DC50 is under 1 nM.
Turning to `CNc1cc(N2CCc3c(CN4CCC(CN5CCC6(CCN(C(=O)c7ccc(Cl)c(N8CCC(=O)NC8=O)c7)CC6)C(F)(F)C5)C(F)(F)C4)cccc32)nn2c(C(=O)N[C@@H]3CC[C@H]3OC)cnc12` (some centres unmarked) [I-1124], the “TYK2 MSD OCI-LY10 Dmax %” value is listed as “A (A (>90%))” and the 50% degradation concentration (DC50) was under 1 nM.
Take `CNc1cc(N2CCc3c(CN4CCC(N5CCC6(CCN(C(=O)c7cc(N8CCC(=O)NC8=O)c(C)c(Cl)c7F)CC6)CC5)C(F)(F)C4)cccc32)nn2c(C(=O)N[C@@H]3CC[C@H]3OC)cnc12` (some centres unmarked) [I-1125]: the “TYK2 MSD OCI-LY10 Dmax %” value is “A (A (>90%))” and the DC50 was under 1 nM.
